In patent publication US9617596B2, “Biomarkers predictive for clinical response for glatiramer acetate” (TEVA PHARMACEUTICAL INDUSTRIES, LTD., priority 2012, dated 2017):

Experiments:
[1] = tested on: RRMS subjects; conditions: over 9 months of treatment, 20 mg group (17 lesions under placebo); cited from earlier work
[2] = daily standard dose of 20 mg; cited from earlier work
[3] = tested on: ERAP2; assay: ERAP2 expression in PBMC of RRMS patients over the course of GA treatment (exon arrays, PCR); type: in vivo, human; conditions: baseline, 3, 12 and 24 months of treatment (FIG. 4)
Protocol: Relapsing-remitting multiple sclerosis patients were treated with GA. Whole blood was taken from patients at four time points including baseline (baseline, month 3, month 12 and month 24). Peripheral blood mononuclear cells (PBMCs) were cryopreserved and RNA was isolated for gene expression analysis (FIG. 3).
Gene expression analysis was performed using Affymetrix Human Exon 1.0 ST expression arrays. Preprocessing was performed with an integrated three-step approach: background correction, normalization […] implemented in the Affymetrix Expression Console. Batch effects normalization was performed with the removeBatchEffect function from limma R package.
PCR analysis was performed in order to validate the expression of ERAP2 in Responder populations as compared to Non-Responders and Healthy Controls.

[4] = tested on: RRMS subjects; conditions: largest controlled study, cited from earlier work

## Glatiramer acetate [GA]
[1]
  median cumulative number of Gd-enhancing lesions: 11 lesions
[2]
  tolerability: generally well tolerated
[3]
  ERAP2 expression change by treatment: not modified
[4]; GA 20 mg vs placebo
  relapse rate reduced: 32%
[4]; under GA 20 mg (1.98 under placebo)
  relapse rate: 1.34
